SMILES strings stand for the structures. pIC50, pKd: −log10 of the molar value. Where a SMILES comes first, the peptide text is derived from it. [ ]: non-standard residue; d: D form. pY = N[C@@H](Cc1ccc(OP(=O)(O)O)cc1)C(=O)O

As a reminder, the pKd is −log10 of the Kd, conventionally taken in molar units. As a reminder, the pIC50 is the IC50 on a negative log10 scale, so that one unit is a factor of ten. Read a high pIC50 as a small IC50.

The target in test [1] is T1, Grb2 (Homo sapiens, UniProt P62993). Briefly: Affinity for Grb2 measured by fluorescence. To be noted: 25° C., 50 mM HEPES, 1 mM DTT, pH 7.5, emission 345 nm, excitation 292 nm, read-out: Diss. const. fluo Kd. It counts as binding. The source says: They are expressed therein as the dissociation constant Kd.
T1 sequence (P62993 whole entry, species assumed): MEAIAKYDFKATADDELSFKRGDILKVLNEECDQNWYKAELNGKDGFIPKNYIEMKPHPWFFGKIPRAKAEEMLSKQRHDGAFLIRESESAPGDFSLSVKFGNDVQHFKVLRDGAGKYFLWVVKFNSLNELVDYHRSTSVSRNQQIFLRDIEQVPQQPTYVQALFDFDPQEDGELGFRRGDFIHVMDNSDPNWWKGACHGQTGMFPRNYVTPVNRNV
Test [2] has as its target T1, Grb2. Kind of test: ELISA competition test (Grb2/biotin-Aha-PSpYVNVQN displacement). It counts as binding. Conditions: displacement of GST-Grb2 (40 ng/ml) from fixed peptide biotin-Aha-PSpYVNVQN (Shc tyrosine 317). Here is the method:
Plates pre-treated with streptavidine (Boehringer) are incubated overnight at 4° C. with 100 μl of a solution of peptide biotin-Aha-PSpYVNVQN (Aha: 6-amino-hexanoic acid) (100 nM solution in TBS buffer Tris 100 mM, NaCl 50 mM, pH 7.5) per well. The non-specific binding is then blocked by incubating for 4 hours with the same buffer containing 3% of skimmed milk ([…]). The products to be tested are distributed among the wells at the desired dilution in the abovementioned buffer containing 3% of skimmed milk and 40 ng/ml of GST-Grb2 (100 μl per well). After one night's incubation, the plates are carefully rinsed 4 times using TBS-milk-0.05% tween 20, then incubated for 2 hours at 37° C., in the presence of 100 μl per well of anti-GST antibody (transduction, dilution 1/500 in TBS-milk-0.05% tween 20). The plates are then carefully rinsed 4 times using TBS-milk-0.05% tween 20, then incubated for 45 minutes at 37° C. in the presence of 100 µl per well of anti-mouse antibody coupled with peroxidase (Amersham, 1/1000 dilution in TBS-milk-0.05% tween 20). The plates are carefully rinsed using TBS-milk-0.05% tween 20, then incubated in the presence of 200 μl per well of TMB developing solution (Interchim), until a sufficient blue coloration has developed. The reaction is then stopped by adding 100 μl of 10% (VN) sulphuric acid per well. The reading is taken at 550 nm. The value read off for each well is then reduced by the control value of an equivalent well with no fixed peptide biotin-Aha-PSpYVNVQN then treated, like its homologue, with fixed peptide. The data is then processed using “Origin 40” software to obtain the 50 inhibitory concentrations.
A general note: ELISA stands for enzyme-linked immunosorbent assay.

As for `NC(=O)C[C@H](NC(=O)[C@H](Cc1ccc(O)cc1)NC(=O)[C@H](Cc1ccc(OP(=O)(O)O)cc1)NC(=O)OCc1cccc(N)c1)C(N)=O` [mAZ-pTyr-Tyr-Asn-NH2, reference compound], the pKd at Grb2 [1] is 6.81. Moreover, the pIC50 on Grb2 [2] is 6.30.
Take `C[C@@](Cc1ccc(C(=O)O)cc1)(NC(=O)[C@H](Cc1ccc(OP(=O)(O)O)cc1)NC(=O)OCc1cccc(N)c1)C(=O)N[C@@H](CC(N)=O)C(N)=O` [mAZ-pTyr-(αMe)Phe(COOH)-Asn-NH2, mAZ-pTyr-(αMe)Phe(4-CO2H)-Asn-NH2]: at Grb2 [1], the negative logarithm of the Kd (pKd) is 7.35. The same molecule showed a pIC50 at Grb2 [2] of 6.82.
Take `C[C@@](Cc1ccc(O)cc1)(NC(=O)[C@H](Cc1ccc(OP(=O)(O)O)cc1)NC(=O)OCc1cccc(N)c1)C(=O)N[C@@H](CC(N)=O)C(N)=O` [mAZ-pTyr-(αMe)Tyr-Asn-NH2, mAZ-pTyr-(α-Me)Tyr-Asn-NH2, reference compound]: on Grb2 [1], the pKd is 6.60. In addition, the pIC50 at Grb2 [2] is 5.96.
On to `CC(Cc1ccc(P(=O)(O)O)cc1)(NC(=O)[C@H](Cc1ccc(OP(=O)(O)O)cc1)NC(=O)OCc1cccc(N)c1)C(=O)N[C@@H](CC(N)=O)C(N)=O` (stereo partly drawn) [mAZ-pTyr-(αMe)Ppp-Asn-NH2 (D or L)], for which the pKd at Grb2 [1] is 8.35.
For the molecule `C[C@@](Cc1ccc(CC(=O)O)cc1)(NC(=O)[C@H](Cc1ccc(OP(=O)(O)O)cc1)NC(=O)OCc1cccc(N)c1)C(=O)N[C@@H](CC(N)=O)C(N)=O` [mAZ-pTyr-(αMe)Phe(CH2—COOH)-Asn-NH2, mAZ-pTyr-(αMe)Phe(4-CH2CO2H)-Asn-NH2], at Grb2 [1], the pKd is 7.22. On Grb2 [2], this molecule showed a pIC50 of 6.70.
As to `NC(=O)C[C@H](NC(=O)C1(NC(=O)[C@H](Cc2ccc(OP(=O)(O)O)cc2)NC(=O)OCc2cccc(N)c2)CCCCC1)C(N)=O` [mAZ-pTyr-Acac-Asn-NH2, reference compound], the pKd on Grb2 [1] was 7.52. Also, the pIC50 on Grb2 [2] was 6.92.
The corresponding values for `CC(Cc1ccc(CP(=O)(O)O)cc1)(NC(=O)[C@H](Cc1ccc(OP(=O)(O)O)cc1)NC(=O)OCc1cccc(N)c1)C(=O)N[C@@H](CC(N)=O)C(N)=O` (stereo partly drawn) [mAZ-pTyr-(αMe)Pmp-Asn-NH2, mAZ-pTyr-(D,L)(αMe)Pmp-Asn-NH2] are 7.15 and 6.58.
The corresponding values for `C[C@@](Cc1ccc(OP(=O)(O)O)cc1)(NC(=O)[C@H](Cc1ccc(OP(=O)(O)O)cc1)NC(=O)OCc1cccc(N)c1)C(=O)N[C@@H](CC(N)=O)C(N)=O` [mAZ-pTyr-(αMe)pTyr-Asn-NH2, mAZ-pTyr-(α-Me)pTyr-Asn-NH2] are 8.52 and 7.96.
The corresponding values for `NC(=O)C[C@H](NC(=O)[C@H](Cc1ccc(OP(=O)(O)O)cc1)NC(=O)[C@H](Cc1ccc(OP(=O)(O)O)cc1)NC(=O)OCc1cccc(N)c1)C(N)=O` [mAZ-pTyr-pTyr-Asn-NH2, reference compound] are 7.22 and 6.63.
`C[C@@](Cc1ccc(OP(=O)(O)O)cc1)(NC(=O)[C@H](Cc1ccc(CP(=O)(O)O)cc1)NC(=O)OCc1cccc(N)c1)C(=O)N[C@@H](CC(N)=O)C(N)=O` [mAZ-Pmp-(αMe)pTyr-Asn-NH2, mAZ-Pmp-(α-Me) pTyr-Asn-NH2]: the pIC50 on Grb2 [2] is 7.38.
Still for that read-out and setting: then `CC(C)[C@H](NC(=O)[C@H](CC(N)=O)NC(=O)[C@@H](NC(=O)[C@H](Cc1ccc(OP(=O)(O)O)cc1)NC(=O)[C@H](CO)NC(=O)[C@@H]1CCCN1)C(C)C)C(=O)N[C@@H](CCC(N)=O)C(=O)N[C@@H](CC(N)=O)C(=O)O` [PSpYVNVQN (Shc 317), reference compound] (H-PS[pY]VNVQN-OH), with 7.15.
Same read-out and setting: then `CC(Cc1ccc(C(F)(F)P(=O)(O)O)cc1)(NC(=O)[C@H](Cc1ccc(OP(=O)(O)O)cc1)NC(=O)OCc1cccc(N)c1)C(=O)N[C@@H](CC(N)=O)C(N)=O` (stereo partly drawn) [mAZ-pTyr-(αMe)F2Pmp-Asn-NH2, mAZ-pTyr-(D,L)(α-Me)F2Pmp-Asn-NH2], with 7.19.

Values taken from patent US20020055463A1, “Pseudopeptide compounds having an inhibiting activity with respect to paths activated by proteins with active tyrosine kinase activity and pharmaceutical compositions containing same” (priority 1998, published 2002).
